Type in all cases: in vivo, C57BL/6 mice
The subject of assay [1] is collagen. Nature of the assay: Sircol assay of bronchoalveolar lavage fluid in polyhexamethylene guanidine-induced pulmonary fibrosis mouse model. Particulars: 15, 30, 60 mg/kg intraperitoneally for 2 weeks after 1 mg/kg polyhexamethylene guanidine into the airway. As for the experimental part: (§1) As a polyhexamethylene guanidine (PHMG) model, 7-week old female C57BL/6 mice were used, and the mice were divided into a total of 5 groups, a polyhexamethylene guanidine-administered group, CG200745-administered groups in which CG200745 is administered at 15, 30, 60 mg/kg after administration of polyhexamethylene guanidine, and a control group to perform the experiment. Airway incision was performed on the mice and 1 mg/kg polyhexamethylene guanidine was injected into the airway in a volume of 50 μl. After injection, the incision site was closed with 5-0 nylon. After the injection of polyhexamethylene guanidine, the drug was administered intraperitoneally for a total of 2 weeks.
After two weeks of drug administration, the skin of the airway of the mouse was incised to expose the airway and washed with 800 μl of PBS into the trachea and then 500 μl of the solution was recovered therefrom to obtain bronchoalveolar lavage fluid. The bronchoalveolar lavage fluid was centrifuged at 4° C. and 1,200 rpm for 5 minutes to obtain supernatant. 50 μl of the bronchoalveolar lavage fluid and 1 ml of sircol dye reagent were mixed for 30 minutes. […] After discarding the supernatant, 1 ml of Alkali reagent was added and absorbance was measured at 555 nm.

Assay [2] has as its system α-SMA, Collagen I, PAI-1, Acetylated H3. Nature of the assay: Western blot of fibrosis markers and Acetylated H3 in lung tissue of polyhexamethylene guanidine-induced pulmonary fibrosis mouse model. Particulars: PHMG model, 15, 30, 60 mg/kg intraperitoneally for 2 weeks, western blot densitometry. As for the experimental part: as §1
(§2) Western blot was performed to identify makers of pulmonary fibrosis (α-SMA, collagen I, PAI-1, E-cadherin, N-cadherin) and Acetylated H3 in tissues. The mice were sacrificed, and then subjected to chest opening and the lungs were removed and stored frozen for a day, and the mouse tissues were ground to prepare a protein sample. It was subjected to SDS-PAGE and the fractionated protein sample was transferred to PVDF (polyvinylidene difluoride) membrane. […]
(§3) With the average for two controls being 1, the relative value was recorded to conduct densitometry analysis.

The subject of assay [3] is kidney with acute renal failure induced after ureteral obstruction (renal fibrosis). Nature of the assay: Histopathology analysis (hematoxylin and eosin) of kidney in unilateral ureteral obstruction (renal failure) mouse model. Particulars: 30 mg/kg/day intake in distilled water, day 7 after ureteral obstruction, compared to the solvent control group. As for the experimental part:
8-week old female C57BL/6 mice were used. After opening the abdomen of C57BL/6 mice, one of two ureters was closed with 6-0 cotton yarn. After closing the ureter, the abdomen was sutured and disinfected. Immediately after surgery, the host mice were classified into the solvent control group which is the non-intake group, and the CG200745 intake group in which CG200745 dissolved in distilled water was consumed (30 mg/kg/day). On the 7th day after surgery, the solvent control group and the CG200745 intake group mice were euthanized, and then normal kidney and the kidney with acute renal failure induced after ureteral obstruction were extracted. The extracted normal kidney and kidney with acute renal failure induced were fixed with 4% paraformaldehyde, and then covered with paraffin to prepare a tissue section with a 3 μm thickness. Hematoxylin and eosin staining was conducted on the completed tissue sections to perform a histopathological analysis of renal tissues. For hematoxylin staining, kidney tissue sections were stained with Gill's hematoxylin for 5 minutes, washed with tap water, and then treated with 95% ethanol. Eosin staining was performed by staining with eosin and phloxine for 1 minute. The tissue sections were then dehydrated with ethanol and xylene and fixed with Canada balsam.

Assay [4] deals with bleomycin-induced pulmonary fibrosis. In words: Histopathological analysis of lung (H&E, Masson's trichrome) in bleomycin-induced mouse model. To be noted: 15, 30, 60 mg/kg intraperitoneally for 2 weeks after 2 mg/kg bleomycin into the airway. How it is done:
(§4) As a bleomycin model, 7-week old female C57BL/6 mice were used, and the mice were divided into a total of 5 groups, a bleomycin-administered group, CG200745-administered groups in which CG200745 is administered at 15, 30, 60 mg/kg after administration of bleomycin, and a control group to perform the experiment. Airway incision was performed on the mice and 2 mg/kg bleomycin was injected into the airway in a volume of 50 μl. After injection, the incision site was closed with 5-0 nylon. After the injection of bleomycin, the drug was administered intraperitoneally for a total of 2 weeks. The mice were sacrificed and subjected to chest opening and then the lungs were removed and fixed with 4% paraformaldehyde. They were fixed by immersing in 4% paraformaldehyde for 48 hours at 4° C., and then a paraffin block was prepared. 4 μm of microsection was made from the paraffin-embedded tissue and attached to a slide. Hemotoxin and eosin staining and Masson's trichrome staining were performed. For hemotoxin and eosin staining, the slide was immersed in xylene twice for 5 minutes each and in 100%, 95% and 70% ethanol for 2 minutes each, and washed with running distilled water. After washing, the slide was immersed in hematoxylin for 1 minute, washed several times with running distilled water, then immersed in eosin for 30 seconds and washed several times with running distilled water. […]

Assay [5] has as its system α-SMA (alpha-smooth muscle actin). Nature of the assay: Expression level of fibrosis marker α-SMA by real-time PCR in kidney of unilateral ureteral obstruction mouse model. To be noted: 30 mg/kg intake, kidney with renal failure induced through ureteral obstruction, compared to the solvent control group. How it is done: 8-week old female C57BL/6 mice were used. After opening the abdomen of C57BL/6 mice, one of two ureters was closed with 6-0 cotton yarn. After closing the ureter, the abdomen was sutured and disinfected. Immediately after surgery, the host mice were classified into the solvent control group which is the non-intake group, and the CG200745 intake group in which CG200745 dissolved in distilled water was consumed (30 mg/kg/day). On the 7th day after surgery, the solvent control group and the CG200745 intake group mice were euthanized, and then normal kidney and the kidney with acute renal failure induced after ureteral obstruction were extracted. […]
The kidney cortex was homogenized with Trizol solution (Invitrogen, Carlsbad, Calif.). […] The washed RNA was dissolved in distilled water and then the concentration was determined by measuring absorbance at 260 nm (Ultraspec 2000; Pharmacia Biotech, Cambridge, UK). cDNA was produced by reverse transcription of […] RNA using oligo(dT) primer and superscript reverse transcriptase II (Invitrogen, Carlsbad, Calif.). The produced cDNA was quantified by measuring with SYBR Green using Smart Cycler II System (Cepheid, Sunnyvale, Calif.). […]

In assay [6] the test system is collagen. Nature of the assay: Sircol assay of bronchoalveolar lavage fluid in bleomycin-induced mouse model. To be noted: 15, 30, 60 mg/kg intraperitoneally for 2 weeks after 2 mg/kg bleomycin into the airway. As for the experimental part:
(§5) As a bleomycin model, 7-week old female C57BL/6 mice were used, and the mice were divided into a total of 5 groups, a bleomycin-administered group, CG200745-administered groups in which CG200745 is administered at 15, 30, 60 mg/kg after administration of bleomycin, and a control group to perform the experiment. Airway incision was performed on the mice and 2 mg/kg bleomycin was injected into the airway in a volume of 50 μl. After injection, the incision site was closed with 5-0 nylon. After the injection of bleomycin, the drug was administered intraperitoneally for a total of 2 weeks.
After two weeks of drug administration, the skin of the airway of the mouse was incised to expose the airway and washed with 800 μl of PBS into the trachea and then 500 μl of the solution was recovered therefrom to obtain bronchoalveolar lavage fluid. The bronchoalveolar lavage fluid was centrifuged at 4° C. and 1,200 rpm for 5 minutes to obtain supernatant. 50 μl of the bronchoalveolar lavage fluid and 1 ml of sircol dye reagent were mixed for 30 minutes. After centrifugation at 4° C. and 12,000 rpm for 10 minutes, the supernatant was discarded, 750 μl of Acid-salt wash reagent was added for washing, and then centrifugation was performed at 12,000 rpm for 10 minutes. After discarding the supernatant, 1 ml of Alkali reagent was added and absorbance was measured at 555 nm.

Assay [7] has as its system α-SMA, Collagen I, PAI-1, Acetylated H3. In words: Western blot of fibrosis markers and Acetylated H3 in lung tissue of bleomycin-induced mouse model. To be noted: 15, 30, 60 mg/kg intraperitoneally for 2 weeks, western blot densitometry. How it is done:
as §5, §2, §3

The test system of assay [8] is polyhexamethylene guanidine-induced pulmonary fibrosis. Nature of the assay: Histopathological analysis of lung (H&E, Masson's trichrome) in polyhexamethylene guanidine-induced pulmonary fibrosis mouse model. Particulars: 15, 30, 60 mg/kg intraperitoneally for 2 weeks after 1 mg/kg polyhexamethylene guanidine into the airway. As for the experimental part: as §4, with “a polyhexamethylene guanidine (PHMG)” for “a bleomycin”, “a polyhexamethylene guanidine-administered” for “a bleomycin-administered”, “of polyhexamethylene guanidine,” for “of bleomycin,”, “and 1” for “and 2”, “mg/kg polyhexamethylene guanidine” for “mg/kg bleomycin”, “water.” for “water. After washing, the slide was immersed in hematoxylin for 1 minute, washed several times with running distilled water, then immersed in eosin for 30 seconds and washed several times with running distilled water.”

This is an account of results in patent US20210015772A1, “PHARMACEUTICAL COMPOSITION FOR PREVENTION OR TREATMENT OF FIBROSIS” (CRYSTALGENOMICS, INC., priority 2018, published 2021).

The structures appear in SMILES notation. A value given as a limit tells only on which side of the number the result lay.

With `CN(C)CCCNC(=O)/C(=C/CCCCC(=O)NO)COc1cccc2ccccc12` [CG200745, (E)-N1-(3-(dimethylamino)propyl)-N8-hydroxy-2-((naphthalene-1-yloxy)methyl)oct-2-enediamide], the “collagen in bronchoalveolar lavage fluid increased by polyhexamethylene guanidine (sircol assay)” value with collagen [1] is “significantly decreased in CG200745 concentration-dependent manner”. Further, in assay [2] (lung tissue), the “expression levels of fibrosis markers (α-SMA, Collagen I, PAI-1) increased by polyhexamethylene guanidine treatment” value was “reduced in CG200745 concentration-dependent manner”. Also, the “level of histone acetylation (Acetylated H3) in lung tissue” value in assay [2] and in assay [7] was “increased” each time. Further, in assay [3], the “fibrosis progression in the kidney (histopathology)” value was “inhibited”. The “degree of fibrosis and collagen accumulation increased by bleomycin treatment (lung histopathology)” value in assay [4] was “significantly decreased in CG200745 concentration-dependent manner and normalized”. The “reduction of α-SMA expression (real-time PCR)” value in assay [5] is at least 50%. For the same compound, the “collagen in bronchoalveolar lavage fluid increased by bleomycin treatment (sircol assay)” value in the assay on collagen [6] is reported as “significantly decreased in CG200745 concentration-dependent manner”. Besides, the “expression levels of fibrosis markers (α-SMA, Collagen I, PAI-1) increased by bleomycin treatment” value in assay [7] (lung tissue) is on record as “reduced in CG200745 concentration-dependent manner”. Besides, the “polyhexamethylene guanidine-induced pulmonary fibrosis (lung histopathology)” value in assay [8] is “suppressed in CG200745 concentration-dependent manner and normalized”.
